Measurements reported in US20220153732A1, “PROTEIN SECRETION INHIBITORS” (KEZAR LIFE SCIENCES, priority 2019, published 2022).

Legend:
Format in all cases: cell-based
[1] = test system: PD1-ss+10aa/Gaussia Luciferase; assay: Dox-Induced PD1-ss-Gluc Assay; conditions: 24 hr doxycycline induction, 293FRT/TO cells, Gaussia luciferase signal; read-out: 24 hr Dox Inducible PD1ssGluc 293FRT/TO: Mean IC50
Procedure: (§1) Transfected cells were selected for resistance to the selectable markers Hygromycin and Blasticidin to create a stable cell line that contained the PD1-ss+10aa/Gaussia Luciferase cDNA insert whose expression was regulated under the T-REx™ system. The day before assay, cells were trypsinized and plated in 384-well tissue culture plates. The next day, compound dilutions in DMSO/media containing doxycycline were added to the wells and incubated at 37° C., 5% CO2.
(§2) For chemical structures that include one or more stereoisomers, but are illustrated without indicating stereochemistry, the assay data refers to a mixture of stereoisomers.

[2] = test system: TNFα-FL/Gaussia Luciferase; assay: Dox Induced TNFα-FL-Gluc Assay; conditions: 24 hr doxycycline induction, 293FRT/TO cells, Gaussia luciferase signal; read-out: 24 hr Dox Inducible TNFaFLGluc 293FRT/TO: Mean IC50
Procedure: as §1, with “TNFα-FL/Gaussia” for “PD1-ss+10aa/Gaussia”, “T-RExTM” for “T-REx™”, “CO2. […] For chemical structures that include one or more stereoisomers, but are illustrated without indicating stereochemistry, the assay data refers to a mixture of stereoisomers.” for “CO2.”

[3] = test system: HER3-ss+4aa/Gaussia Luciferase; assay: Dox-Induced Her3-ss-Gluc Assay; conditions: 24 hr doxycycline induction, 293FRT/TO cells, Gaussia luciferase signal; read-out: 24 hr Dox Inducible Her3(ss + 4)Gluc 293FRT/TO: Mean IC50
Procedure: as §1, with “HER3-ss+4aa/Gaussia” for “PD1-ss+10aa/Gaussia”
as §2

[4] = test system: IL-2-FL/Gaussia Luciferase; assay: Dox Induced IL2-FL-Gluc Assay; conditions: 24 hr doxycycline induction, 293FRT/TO cells, Gaussia luciferase signal; read-out: 24 hr Dox Inducible IL2FLGIuc 293FRT/TO: Mean IC50
Procedure: as §1, with “IL-2-FL/Gaussia” for “PD1-ss+10aa/Gaussia”, “T-RExTM” for “T-REx™”, “CO2. […] For chemical structures that include one or more stereoisomers, but are illustrated without indicating stereochemistry, the assay data refers to a mixture of stereoisomers.” for “CO2.”

[5] = test system: human multiple myeloma cell line NCI-H929; assay: H929 Cell Viability Assay; conditions: 48 hr, NCI-H929 cells, Celltiter-Glo, read-out: 48 hr H929 Viability Celltiter-Glo: Mean EC50
Procedure: (§3) Plates were incubated at 37° C., 5% CO2 for 48 hours. After 48 hours, Celltiter-Glo® (Promega) was added to each well and luciferase signal was quantified using Tecan Infinite M1000 Pro for cell viability determination.
as §2

[6] = test system: human multiple myeloma cell line U266B1; assay: U266 Cell Viability Assay; conditions: U-266, 48 hr, U266B1 cells, Celltiter-Glo, read-out: 48 hr U266 Viability Celltiter-Glo: Mean EC50
Procedure: as §3, with “Cells were plated in 384-well tissue culture plates and treated with compound dilutions in DMSO/media. Plates” for “Plates”
as §2

Row | SMILES | IC50 [1] [µM] | IC50 [2] [µM] | IC50 [3] [µM] | IC50 [4] [µM] | EC50 [5] [µM] | EC50 [6] [µM]
1 | CCc1csc(NC(=O)c2cccn2Cc2ccncc2)n1 [Compound A35, N-(4-ethylthiazol-2-yl)-1-(pyridin-4-ylmethyl)-1H-pyrrole-2-carboxamide] | 0.692 | > 25 | 1.94 | 2.3 | > 25 | > 25
2 | CC(C)OC(C)(C)c1csc(NC(=O)c2cccn2Cc2cc(F)nc(F)c2)n1 [Compound A36, 1-((2,6-difluoropyridin-4-yl)methyl)-N-(4-(2-isopropoxypropan-2-yl)thiazol-2-yl)-1H-pyrrole-2-carboxamide] | 0.698 | 21 | 1.14 | 0.896 | > 25 | > 25
3 | Cc1sc(NC(=O)c2cccn2Cc2ccncc2)nc1C(C)(C)OC(C)C [Compound A37, N-(4-(2-isopropoxypropan-2-yl)-5-methylthiazol-2-yl)-1-(pyridin-4-ylmethyl)-1H-pyrrole-2-carboxamide] | 0.703 | 12.1 | 1.24 | 1.07 | > 25 | > 25
4 | Cc1sc(NC(=O)c2cccn2Cc2ccncc2)nc1C(C)C [Compound A38] | 0.706 | 14.8 | 1.2 | 1.41 | > 25 | > 25
5 | CC(C)(OCC1CCCCO1)c1csc(NC(=O)c2cccn2Cc2ccncc2)n1 (stereo not drawn) [Compound A39, 1-(pyridin-4-ylmethyl)-N-(4-(2-((tetrahydro-2H-pyran-2-yl)methoxy)propan-2-yl)thiazol-2-yl)-1H-pyrrole-2-carboxamide] | 0.723 | 13.1 | 1.49 | 1.34 | > 25 | > 25
6 | CC(C)(OCC1CCOCC1)c1csc(NC(=O)c2cccn2Cc2ccncc2)n1 [Compound A40, 1-(pyridin-4-ylmethyl)-N-(4-(2-((tetrahydro-2H-pyran-4-yl)methoxy)propan-2-yl)thiazol-2-yl)-1H-pyrrole-2-carboxamide] | 0.858 | 12.6 | 1.56 | 1.21 | > 25 | > 25
7 | CC(C)OC(C)(C)c1csc(NC(=O)c2cccn2Cc2ccncc2Br)n1 [Compound A41, 1-((3-bromopyridin-4-yl)methyl)-N-(4-(2-isopropoxypropan-2-yl)thiazol-2-yl)-1H-pyrrole-2-carboxamide] | 0.878 | 12 | 2.39 | 1.98 | 9.52 | > 25
8 | Cc1nc(NC(=O)c2cccn2Cc2ccncc2)sc1F [Compound A42] | 0.939 | > 25 | 2.18 | 3.79 | > 25 | > 25
9 | CCc1sc(NC(=O)c2cccn2Cc2ccncc2)nc1C [Compound A43] | 0.942 | > 25 | 2.21 | 2.67 | > 25 | > 25
10 | CC(C)OC(C)(C)c1csc(NC(=O)c2cccn2CCCCc2ccncc2)n1 [Compound A44, N-(4-(2-isopropoxypropan-2-yl)thiazol-2-yl)-1-(4-(pyridin-4-yl)butyl)-1H-pyrrole-2-carboxamide] | 0.963 | 13.3 | 1.48 | 0.837 | > 24.8 | > 25
11 | CC(C)(C)c1csc(NC(=O)c2cccn2Cc2ccncc2)n1 [Compound A45, N-(4-(tert-butyl)thiazol-2-yl)-1-(pyridin-4-ylmethyl)-1H-pyrrole-2-carboxamide] | 0.965 | 13.8 | 1.65 | 0.869 | > 25 | > 25
12 | Cc1cccc2sc(NC(=O)c3cccn3Cc3ccncc3)nc12 [Compound A46] | 1.07 | 17.8 | 2.98 | 0.89 | > 25 | > 25
13 | Cc1sc(NC(=O)c2cccn2Cc2ccncc2)nc1C1CC1 [Compound A47] | 1.09 | 25 | 2.21 | 3.11 | > 25 | > 25
14 | Cc1cc(C(=O)Nc2nc(C(C)(C)OC(C)C)cs2)n(Cc2ccncc2)c1 [Compound A48, N-(4-(2-isopropoxypropan-2-yl)thiazol-2-yl)-4-methyl-1-(pyridin-4-ylmethyl)-1H-pyrrole-2-carboxamide] | 1.19 | > 25 | 2.69 | 2.22 | > 25 | > 25
15 | CC(C)OC(C)(C)c1csc(NC(=O)c2cccn2[C@H](C)c2ccncc2)n1 [Compound A49, (R)-N-(4-(2-isopropoxypropan-2-yl)thiazol-2-yl)-1-(1-(pyridin-4-yl)ethyl)-1H-pyrrole-2-carboxamide] | 1.21 | 23.6 | 2.58 | 1.89 | > 25 | > 25
16 | O=C(Nc1nc2ccccc2s1)c1cccn1Cc1ccncc1 [Compound A50, N-(benzo[d]thiazol-2-yl)-1-(pyridin-4-ylmethyl)-1H-pyrrole-2-carboxamide] | 1.29 | > 25 | 2.93 | 1.45 | > 25 | > 25
17 | O=C(Nc1nc(C2CC2)cs1)c1cccn1Cc1ccncc1 [Compound A51] | 1.3 | > 25 | 3.42 | 2.98 | > 25 | > 25
18 | O=C(Nc1nc2c(s1)CCCC2)c1cccn1Cc1ccncc1 [Compound A52] | 1.36 | > 25 | 2.83 | 1.95 | > 25 | > 25
19 | CC(C)OC(C)(C)c1csc(NC(=O)c2cccn2Cc2ccc([N+](=O)[O-])cc2)n1 [Compound A53, N-(4-(2-isopropoxypropan-2-yl)thiazol-2-yl)-1-(4-nitrobenzyl)-1H-pyrrole-2-carboxamide] | 1.38 | 19.1 | 1.92 | 1.2 | 17.3 | > 25
20 | CC(C)(C)c1cnc(NC(=O)c2cccn2Cc2ccncc2)s1 [Compound A54] | 1.38 | > 25 | 4.05 | 4.45 | > 25 | > 25
21 | CC(C)c1cnc(NC(=O)c2cccn2Cc2ccncc2)s1 [Compound A55] | 1.39 | > 25 | 3.16 | 3.99 | > 25 | > 25
22 | O=C(Nc1nc2c(s1)CCC2)c1cccn1Cc1ccncc1 [Compound A56] | 1.42 | > 25 | 5.31 | 6.47 | > 25 | > 25
23 | CC(C)Cc1cnc(NC(=O)c2cccn2Cc2ccncc2)s1 [Compound A57] | 1.42 | > 25 | 4.2 | 4.93 | > 25 | > 25
